# Test results taken from patent US20100249205A1 (ARIZONA BOARD OF REGENTS, priority 2005, published 2010).
# Read-outs that look alike come from different tables or passages of the source.
# How the values were obtained:
# [1] = molecular target: mTOR (Homo sapiens, UniProt P42345); assay: mTOR inhibition (Table 1); format: biochemical
# [2] = system: NCI cell panel; assay: Cytotoxicity, NCI cell panel (growth inhibition, MTT assay); conditions: Homo sapiens, read-out: Cytotoxicity: NCI cell panel IC50
# Source text: The proliferation of cells may be dependent on the PI-3 kinase-Akt-mTOR signaling pathway. In addition, signaling through PI-3 kinase and Akt appears to inhibit apoptosis. […] The MTT assay is a standard colorimetric assay for measuring cellular proliferation (cell growth). It is universally used to determine cytotoxicity of potential medicinal agents and other toxic materials. Yellow MTT (3-(4,5-Dimethylthiazol-2-yl)-2,5-diphenyltetrazolium bromide) is reduced to purple formazan in the mitochondria of living cells. This reduction takes place only when mitochondrial reductase enzymes are active, and therefore conversion is directly related to the number of viable (living) cells. […] Toxicities are measured at the maximum tolerated dose or the highest dose tested. […] Alanine aminotranferease (ALT) and aspartate aminotransferase (AST) are enzymes located in liver cells that leak out into the general circulation when liver cells are injured. […] A low liver toxicity and a high lymphocyte toxicity as a surrogate for inhibition of tumor cell growth is the desirable feature.
# [3] = molecular target: PI-3 kinase; format: biochemical; conditions: read-out: PI-3 kinase inhibition IC50
# [4] = molecular target: T1, recombinant bovine p110α/p85α (Bos taurus, UniProt P32871); assay: Recombinant PI-3 kinase inhibition, [32P]γ-ATP dependent phosphorylation of phosphatidylinositol; format: biochemical
# T1 construct: purchased Jena Bioscience, Jena, Germany
# [5] = system: HT-29 human colon cancer cells; assay: Cytotoxicity / cell growth inhibition in HT-29 cells, cell number by flow cytometry; format: cell-based; conditions: read-out: growth inhibitory concentration 50% (IC50)
# Procedure: The compounds were added from a 10 mg/ml stock solution in ethanol. Cell number was determined after 3 days by flow cytometry using a Guava EasyCyte Plus flow cytometer (Guava Technologies). The results are expressed as cell number at the end of the assay as percent of the control value with no drug. Values are the mean of 3 determinations and bars are standard deviation.
# [6] = system: phospho-Ser^473-Akt in HT-29 colon cancer cells; assay: Inhibition of EGF-dependent activation of Akt (phospho-Ser473-Akt western blot); format: cell-based, human; conditions: HT-29 cells, 4 hours exposure, EGF 50 ng/ml for 20 minutes
# Procedure: The cells were then stimulated with epidermal growth factor (EGF) at 50 ng/ml for 20 minutes. Cells were lysed and the proteins were separated on an SDS-PAGE and transferred to nitrocellulose.
# [7] = molecular target: T2, recombinant human p110δ/p85α (Homo sapiens, UniProt O00329); assay: Recombinant PI-3 kinase inhibition, [32P]γ-ATP dependent phosphorylation of phosphatidylinositol; format: biochemical
# T2 construct: purchased Upstate, Charlottesville, Va
# [8] = Stability of PX-866 in buffer systems by HPLC; format: physicochemical; conditions: for % remaining / % degradation: 1 mg/mL; for % remaining: within 2 hours, 4° C.; for % degradation: after 2 hours of storage
# Procedure: This solution was used as a stock to make the various test buffer solutions to be analyzed. The stock, in each case, was diluted 1:10 to a final storage concentration of 1 mg/mL with 5% dextrose for injection (D5W), sterile water for injection (SW), 0.9% sodium chloride for injection (NS), absolute ethanol (EtOH), and 20 mM sodium phosphate (NaH2PO4) buffer. Prior to analysis the test buffers were further diluted 1:100, to a final analytical concentration of 10 μg/mL, with 50:50 0.2% formic acid:methanol, v:v. 50 μL of each sample was then injected into the HPLC system (Alliance 2695 Separation Module, Waters, Milford, Mass.; see Table 2 for HPLC parameters) for analysis. The 2 hour and 24 hour test samples were stored, undiluted, at 4° C. prior to analysis while the 0 hour samples were immediately quantified following dilution.
# [9] = In vitro metabolism in murine S9 fractions; format: in vitro ADME; conditions: phase I, phase II and phase I/II reactions, 60 min
# Procedure: Metabolites generated in these reactions were identified by HPLC runs, using a wavelength of 310 nm (see FIG. 6C). Peaks representing metabolites were identified by comparing the HPLC profiles (at 310 nm) in chromatograms from 0 min and 60 min reaction times. The corresponding mass spectral (MS) analysis of these peaks, using quadrupolar time-of-flight MS allowed the accurate mass of the metabolites to be determined (see FIG. 6D). Metabolynx software (Waters-MicroMass, Milford, Mass.) was used to interpret the spectra.
# We identified the M#1 as a reduction product which is most probably a non-microsomal carbonyl reduction of a ketone to a secondary alcohol, as described in previous metabolism studies. In addition, M#2-3 were the same reduction products however, the alteration in retention time may indicate that the molecule undergoes reduction in sites other than that observed with M#1.
# [10] = from U.S. application Ser. No. 11/178,553; cited from earlier work
# [11] = HT-29 cells, 3 days, cell number as percent of control
# T2 sequence (O00329 whole entry): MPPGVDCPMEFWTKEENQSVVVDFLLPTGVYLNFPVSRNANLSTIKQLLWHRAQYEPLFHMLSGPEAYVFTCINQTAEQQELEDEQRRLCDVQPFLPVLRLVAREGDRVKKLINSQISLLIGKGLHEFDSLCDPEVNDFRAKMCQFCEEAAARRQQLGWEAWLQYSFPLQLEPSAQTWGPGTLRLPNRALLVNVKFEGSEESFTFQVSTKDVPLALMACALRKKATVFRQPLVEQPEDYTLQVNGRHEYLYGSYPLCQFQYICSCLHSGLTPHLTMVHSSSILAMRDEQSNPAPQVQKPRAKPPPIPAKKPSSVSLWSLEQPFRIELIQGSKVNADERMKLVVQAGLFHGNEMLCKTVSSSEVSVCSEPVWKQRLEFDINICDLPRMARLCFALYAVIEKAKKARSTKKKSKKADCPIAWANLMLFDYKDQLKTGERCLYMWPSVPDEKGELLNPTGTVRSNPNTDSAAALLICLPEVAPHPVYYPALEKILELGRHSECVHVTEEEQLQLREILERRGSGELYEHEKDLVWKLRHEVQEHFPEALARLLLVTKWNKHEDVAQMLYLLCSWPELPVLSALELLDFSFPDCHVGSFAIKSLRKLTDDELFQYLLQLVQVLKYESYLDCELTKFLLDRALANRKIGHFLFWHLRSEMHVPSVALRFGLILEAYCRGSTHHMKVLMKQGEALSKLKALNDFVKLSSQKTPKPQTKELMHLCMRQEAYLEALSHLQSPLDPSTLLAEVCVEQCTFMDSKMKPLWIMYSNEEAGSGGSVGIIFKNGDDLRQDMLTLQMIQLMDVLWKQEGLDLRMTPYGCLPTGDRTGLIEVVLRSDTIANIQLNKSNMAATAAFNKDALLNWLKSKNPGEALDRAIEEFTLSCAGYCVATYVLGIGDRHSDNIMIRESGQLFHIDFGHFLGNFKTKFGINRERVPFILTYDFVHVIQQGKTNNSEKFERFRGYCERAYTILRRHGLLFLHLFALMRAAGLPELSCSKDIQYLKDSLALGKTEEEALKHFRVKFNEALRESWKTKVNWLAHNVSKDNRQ
# T2 sequence (P27986 whole entry partner): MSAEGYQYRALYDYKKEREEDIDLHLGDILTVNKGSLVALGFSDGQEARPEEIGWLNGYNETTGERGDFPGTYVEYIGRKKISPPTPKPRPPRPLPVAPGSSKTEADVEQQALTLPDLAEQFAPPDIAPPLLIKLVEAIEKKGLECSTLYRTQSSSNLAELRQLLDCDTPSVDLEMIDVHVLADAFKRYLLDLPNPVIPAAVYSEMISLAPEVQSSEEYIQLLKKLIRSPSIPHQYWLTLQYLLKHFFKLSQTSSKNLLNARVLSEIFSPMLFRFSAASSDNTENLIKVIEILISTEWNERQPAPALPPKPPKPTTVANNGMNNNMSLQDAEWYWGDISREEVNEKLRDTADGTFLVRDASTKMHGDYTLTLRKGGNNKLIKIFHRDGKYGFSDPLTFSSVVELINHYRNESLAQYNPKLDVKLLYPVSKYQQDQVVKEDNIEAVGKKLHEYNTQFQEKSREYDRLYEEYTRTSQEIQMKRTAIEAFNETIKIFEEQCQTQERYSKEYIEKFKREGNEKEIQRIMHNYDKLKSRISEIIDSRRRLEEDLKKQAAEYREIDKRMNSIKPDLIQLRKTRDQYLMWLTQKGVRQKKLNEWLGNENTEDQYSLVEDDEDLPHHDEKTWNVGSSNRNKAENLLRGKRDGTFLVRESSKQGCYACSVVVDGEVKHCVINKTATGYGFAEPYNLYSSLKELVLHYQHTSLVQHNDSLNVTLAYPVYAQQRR
# T1 sequence (P32871 whole entry): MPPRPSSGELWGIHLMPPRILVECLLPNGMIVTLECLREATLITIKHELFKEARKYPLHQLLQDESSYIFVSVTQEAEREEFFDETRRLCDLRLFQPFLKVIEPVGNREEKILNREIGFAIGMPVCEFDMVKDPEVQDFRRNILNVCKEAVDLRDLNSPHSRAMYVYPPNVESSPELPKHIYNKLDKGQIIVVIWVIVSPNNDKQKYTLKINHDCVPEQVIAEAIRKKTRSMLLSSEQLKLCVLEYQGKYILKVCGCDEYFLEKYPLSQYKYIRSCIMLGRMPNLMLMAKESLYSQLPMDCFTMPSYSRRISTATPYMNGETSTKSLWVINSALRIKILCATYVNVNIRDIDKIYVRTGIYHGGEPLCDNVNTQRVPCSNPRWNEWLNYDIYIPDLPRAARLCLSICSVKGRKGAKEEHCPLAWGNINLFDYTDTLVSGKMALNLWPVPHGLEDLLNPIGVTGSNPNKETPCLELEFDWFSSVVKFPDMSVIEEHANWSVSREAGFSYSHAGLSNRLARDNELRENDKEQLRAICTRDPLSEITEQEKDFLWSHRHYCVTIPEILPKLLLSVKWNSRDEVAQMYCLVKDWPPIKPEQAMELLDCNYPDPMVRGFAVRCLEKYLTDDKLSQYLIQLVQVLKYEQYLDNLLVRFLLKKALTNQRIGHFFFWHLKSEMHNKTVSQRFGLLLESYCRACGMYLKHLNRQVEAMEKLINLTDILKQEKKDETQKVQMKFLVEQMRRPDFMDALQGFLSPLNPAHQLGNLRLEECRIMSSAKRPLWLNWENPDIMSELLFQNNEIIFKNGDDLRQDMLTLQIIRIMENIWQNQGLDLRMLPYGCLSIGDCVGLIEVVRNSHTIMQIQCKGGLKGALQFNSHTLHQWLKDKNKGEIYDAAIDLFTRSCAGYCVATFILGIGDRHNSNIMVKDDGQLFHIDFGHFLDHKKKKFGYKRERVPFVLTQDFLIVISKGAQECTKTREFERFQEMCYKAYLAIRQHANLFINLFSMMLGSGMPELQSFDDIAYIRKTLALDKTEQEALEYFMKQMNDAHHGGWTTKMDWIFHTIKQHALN
# T1 sequence (P23727 whole entry partner): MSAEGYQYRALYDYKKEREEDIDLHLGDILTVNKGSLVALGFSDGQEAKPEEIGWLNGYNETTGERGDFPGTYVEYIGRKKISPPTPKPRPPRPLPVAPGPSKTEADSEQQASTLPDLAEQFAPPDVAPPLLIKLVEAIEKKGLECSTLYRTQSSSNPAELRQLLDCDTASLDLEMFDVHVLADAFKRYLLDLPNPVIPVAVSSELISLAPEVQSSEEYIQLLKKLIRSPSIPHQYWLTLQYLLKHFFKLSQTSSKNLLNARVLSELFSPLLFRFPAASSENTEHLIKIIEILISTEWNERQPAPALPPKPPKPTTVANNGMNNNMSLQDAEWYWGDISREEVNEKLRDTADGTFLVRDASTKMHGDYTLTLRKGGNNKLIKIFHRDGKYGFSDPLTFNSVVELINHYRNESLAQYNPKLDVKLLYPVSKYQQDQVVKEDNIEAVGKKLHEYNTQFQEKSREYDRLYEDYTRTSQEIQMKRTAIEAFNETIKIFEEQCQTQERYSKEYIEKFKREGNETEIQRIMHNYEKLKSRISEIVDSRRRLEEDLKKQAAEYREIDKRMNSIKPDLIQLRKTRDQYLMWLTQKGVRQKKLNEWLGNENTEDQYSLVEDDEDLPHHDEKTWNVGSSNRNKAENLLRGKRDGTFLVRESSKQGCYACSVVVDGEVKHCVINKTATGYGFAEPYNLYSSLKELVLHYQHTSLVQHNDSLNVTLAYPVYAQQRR
Molecule,IC50 [2] [µM],IC50 [3] [µM],inhibition of p110α isoform of PI-3 kinase [4],"IC50 [5, 11] [µM]",IC50 for inhibition of phospho-Ser473-Akt (ratio to total Akt) [6],inhibition of p110δ isoform of PI-3 kinase [7],also measured
"COCC1OC(=O)C(=CN2CCCC2)C2=C(O)C(=O)C3=C(C(OC(C)=O)CC4(C)C(=O)CCC34)C21C (stereo not drawn) [PX-867, Acetic acid 6-hydroxy-1α-methoxymethyl-10β,13β-dimethyl-3,7,17-trioxo-4-pyrrolidin-1-yl-methylene-1,3,4,7,10,11β,12,13,14α,15,16,17-dodecahydro-2-oxa-cyclopenta[α]phenanthren-11-yl]",0.5,0.0011,,,,,IC50 [1]: > 3 µM
"11-deacetylated,17-hydroxy PX-866 [PX-866-1]",,,considerably less active,4.5,greater than 70 nM,considerably less active,
"COC[C@H]1OC(=O)c2coc3c2[C@@]1(C)C1=C(C3=O)[C@@H]2CCC(=O)[C@@]2(C)C[C@H]1OC(C)=O [Wortmannin, wortmannin, reference compound]",8.9,,,,,,
"C=CCN(/C=C1/C(=O)O[C@H](COC)[C@@]2(C)C1=C(O)C(=O)C1=C2[C@H](OC(C)=O)C[C@]2(C)C(=O)CC[C@@H]12)CC=C [PX-866, Acetic acid 4-diallylaminomethylene-6-hydroxy-1-α-methoxymethyl-10β,13β-dimethyl-3,7,17-trioxo-1,3,4,7,10,11β,12,13,14α,15,16,17-dodecahydro-2-oxa-cyclopenta[α]phenanthren-11-yl ester]",2.2,0.0005,,,,,"IC50 ([1]; read-out: mTOR inhibition IC50): > 3 µM; IC50 ([5]; Homo sapiens, HT-29, 72 h): 4 µM; % remaining ([8]; 20 mM sodium phosphate buffer): > 60%; % remaining ([8]; D5W (5% dextrose for injection)): > 80%; % degradation ([8]; EtOH (absolute ethanol)): < 10%; % degradation ([8]; NS (0.9% sodium chloride for injection)): < 10%; % degradation ([8]; SW (sterile water for injection)): < 10%; stability from 2 to 24 hours ([8]; regardless of the buffer system employed): maintained relative stability; type of metabolites formed [9]: only Phase I-type metabolites were formed; blood levels following oral administration [10]: low"
17-hydroxy PX-866 [PX-866-2],,,as active as PX-866 or wortmannin,> 50,0.04 µM,as active as PX-866 or wortmannin,
